One experiment concerns MBD-3. Put plainly: Amount of MBD-3 in culture supernatant of LPS-treated epidermal keratinocytes and/or Gr-1+CD11b+ cells (Transwell, ELISA). Type of experiment: cell-based, mouse. As to conditions: 10 μg/ml, 48 hours. The method, then:
(§1) Epidermal keratinocytes (EK) were collected from the skin of a normal mouse, and a cell solution was prepared to a concentration of 2×10^6 cells/ml using RPMI1640 medium supplemented with 10% inactivated fetal bovine serum. In order to induce MBD-3, the cells were treated with lipopolysaccharides (LPS) in an amount of 1 μg/ml for 6 hours. Furthermore, a normal mouse was given a burn injury on its dorsal side, and after 12 hours, Gr-1^+CD11b^+ cells were collected from the skin tissues around the burn site. A cell solution of the collected cells was prepared to a concentration of 5×10^5 cells/ml using RPMI1640 medium supplemented with 10% inactivated fetal bovine serum. In the co-presence of glycyrrhizin in an amount of 10 μg/ml, the LPS-treated epidermal keratinocytes and the Gr-1^+CD11b^+ cells were cultured in a same Transwell at 37° C. After 48 hours from the initiation of culture, the amount of MBD-3 in the supernatant of the culture fluid was measured by ELISA. The experiment was carried out in the same manner as in Example 5, except that glycyrrhizin was not allowed to be co-present, and the amount of MBD-3 in the supernatant of the culture fluid was measured. The experiment was carried out in the same manner as in Example 5, except that only LPS-treated epidermal keratinocytes (2×10^6 cells/ml) were cultured without allowing glycyrrhizin to be co-present, and the amount of MBD-3 in the supernatant of the culture fluid was measured. The experiment was carried out in the same manner as in Example 5, except that only LPS-treated epidermal keratinocytes (2×10^6 cells/ml) were cultured in the co-presence of glycyrrhizin in an amount of 10 μg/ml, and the amount of MBD-3 in the supernatant of the culture fluid was measured. The experiment was carried out in the same manner as in Example 5, except that only Gr-1^+CD11b^+ cells (5×10^5 cells/ml) were cultured without allowing glycyrrhizin to be co-present, and the amount of MBD-3 in the supernatant of the culture fluid was measured.
On the technique in general: ELISA stands for enzyme-linked immunosorbent assay.

Experiment [1] relates to MBD-1. In words: Quantity-dependency of glycyrrhizin on MBD-1 production ability restoration (Transwell co-culture, ELISA). Type of experiment: cell-based, mouse. As to conditions: 48 hours. The procedure:
Epidermal keratinocytes (2×10^6 cells/ml) were collected from the skin of a normal mouse. Furthermore, a normal mouse was given a burn injury on its dorsal side, and after 12 hours, Gr-1^+CD11b^+ cells (5×10^5 cells/ml) were collected from the skin tissues around the burn site. Using the medium for keratinocyte culture as a medium, and making glycyrrhizin to be co-present in an amount of 1 μg/ml (Example 6), 10 μg/ml (Example 7), 100 μg/ml (Example 8) or 300 μg/ml (Example 9), the epidermal keratinocytes and the Gr-1^+CD11b^+ cells were cultured in a same Transwell at 37° C. The amount of MBD-1 in the supernatant of the culture fluid after 48 hours from the initiation of culture was measured by ELISA. The results are shown in the semilogarithmic graph of FIG. 8. The experiment was carried out in the same manner as in Examples 6 to 9, except that glycyrrhizin was not made to be co-present, and the amount of MBD-1 in the supernatant of the culture fluid was measured. The results are shown in the bar graph of FIG. 8. […] Furthermore, the two graphs share the vertical axis (the amount of MBD-1).

For experiment [2], the system named is Pseudomonas aeruginosa. Put plainly: Amount of Pseudomonas aeruginosa in blood and spleen homogenate specimens of infected burn mice (colony counting). In kind it is in vivo. The note with it: 100 CFU, 10 mg/kg i.p. at 2 and 12 hours after infection, 48 hours after infection. The procedure: A normal mouse was given a burn injury on its dorsal side, and was infected at the burn site with Pseudomonas aeruginosa in an amount of 100 CFU. Subsequently, glycyrrhizin was intraperitoneally administered to the mouse at 2 hours and 12 hours after the infection with Pseudomonas aeruginosa, each time in an amount of 10 mg per kilogram of body weight of the mouse (an amount of 10 mg/kg). Subsequently, after 48 hours from the infection with Pseudomonas aeruginosa, blood and spleen were collected from the mouse, and the amounts of Pseudomonas aeruginosa in the blood specimen and the spleen homogenate specimen were measured by a colony-counting method. The vertical axis of the graph of FIG. 4 represents the amount of Pseudomonas aeruginosa in 1 ml of the specimen (amount of CFU). The experiment was carried out in the same manner as in Example 2, except that physiological saline was intraperitoneally administered instead of glycyrrhizin, and the amounts of Pseudomonas aeruginosa in the blood specimen and the spleen homogenate specimen were measured.

Experiment [3] has as its system Pseudomonas aeruginosa. Put plainly: Survival rate of burn-injured, Pseudomonas aeruginosa-administered mice. In kind it is in vivo, mouse. The procedure: A normal mouse was given a burn injury on the dorsal side, and Pseudomonas aeruginosa was applied to the burn site in an amount of 100 CFU (Colony-Forming Units). Subsequently, glycyrrhizin was intraperitoneally administered to the mouse at 2 hours, 24 hours and 72 hours after the occurrence of burn injury, each time in an amount of 10 mg per kilogram of body weight of the mouse (an amount of 10 mg/kg), and it was checked whether the mouse was alive or dead. The same operation was carried out on 10 mice, and the survival rate of the mice was checked. The horizontal axis of the graph of FIG. 1 represents the number of days (days) after the Pseudomonas aeruginosa infection.
The experiment was carried out in the same manner as in Example 1, except that physiological saline was intraperitoneally administered instead of glycyrrhizin, and the survival rate of the mice was checked.

The test system of another experiment is CCL2. In words: CCL2 production by Gr-1+CD11b+ cells (ELISA). The note with it: 10 μg/ml; 48 hours; vs no glycyrrhizin. In kind it is cell-based, mouse. The procedure: (§2) A normal mouse was given a burn injury on its dorsal side, and after 12 hours, Gr-1^+CD11b^+ cells (2×10^6 cells/ml) were collected from the skin tissue around the burn site. Using the keratinocyte culture medium as a medium, the Gr-1^+CD11b^+ cells were cultured in a 96-well plate at 37° C. in the co-present of glycyrrhizin in an amount of 10 μg/ml. After 48 hours from the initiation of culture, the amounts of CCL2 and IL-10 in the supernatant of the culture fluid were measured by ELISA. […] The experiment was carried out in the same manner as in Example 10, except that glycyrrhizin was not made to be co-present, and the amounts of CCL2 and IL-10 in the supernatant of the culture fluid were measured.

For experiment [4], the system named is MBD-1. Put plainly: Amount of MBD-1 in skin tissue homogenate around the burn site (ELISA). Type of experiment: in vivo. The note with it: 10 mg/kg i.p. 2 hours after burn, skin collected 0.5-24 hours after burn. The method, then: A normal mouse was given a burn injury on its dorsal side, and was intraperitoneally administered with glycyrrhizin in an amount of 10 mg per kg of body weight of the mouse (an amount of 10 mg/kg), 2 hours after the occurrence of burn injury. The skin tissue was collected from the surroundings of the burn site after 0.5 hours, 6 hours, 12 hours, 18 hours and 24 hours from the occurrence of burn injury, and the collected skin tissues were homogenized. The amount of MBD-1 in the homogenate liquid was measured by ELISA. The horizontal axis of the graph of FIG. 5 represents the time (hours) after the occurrence of burn injury. The experiment was carried out in the same manner as in Example 3, except that physiological saline was intraperitoneally administered instead of glycyrrhizin, and the amount of MBD-1 in the homogenate liquid was measured.

For the next experiment, the system named is IL-10. In words: IL-10 production by Gr-1+CD11b+ cells (ELISA). Type of experiment: cell-based, mouse. The note with it: 10 μg/ml; 48 hours; vs no glycyrrhizin. The procedure:
as §2

Experiment [5] deals with MBD-1. Put plainly: Amount of MBD-1 in culture supernatant of epidermal keratinocytes and/or Gr-1+CD11b+ cells (Transwell, ELISA). As to conditions: 10 μg/ml, 48 hours. In kind it is cell-based, mouse. The procedure: as §1, with “serum.” for “serum. In order to induce MBD-3, the cells were treated with lipopolysaccharides (LPS) in an amount of 1 μg/ml for 6 hours.”, “the” for “the LPS-treated”, “MBD-1” for “MBD-3”, “4,” for “5,”, “only” for “only LPS-treated”

For experiment [6], the system named is MBD-1. Put plainly: MBD-1 production of epidermal keratinocytes cultured with recombinant CCL2 and/or IL-10. The note with it: recombinant CCL2 5 ng/ml and/or IL-10 1 ng/ml; 48 hours. In kind it is cell-based, mouse. The procedure: Epidermal keratinocytes (2×10^6 cells/ml) collected from the skin of a normal mouse were cultured at 37° C. in the co-presence of CCL2 (5 ng/ml) (Reference Example 18), IL-10 (1 ng/ml) (Reference Example 19), or CCL2 (5 ng/ml) and IL-10 (1 ng/ml) (Reference Example 20), which had been produced by a known recombinant DNA technology using a recombinant. The amount of MBD-1 in the supernatant of the culture fluid after 48 hours from the initiation of culture was measured by ELISA.

Data on three molecules can be found in US20110009352A1, “RESTORATIVE AGENT FOR ANTIBACTERIAL PEPTIDE PRODUCTION ABILITY” (Minophagen Pharmaceutical Co., LTD., priority 2009, published 2011).

Consider `CC1(C)[C@@H](O[C@H]2O[C@H](C(=O)O)[C@@H](O)[C@H](O)[C@H]2O[C@@H]2O[C@H](C(=O)O)[C@@H](O)[C@H](O)[C@H]2O)CC[C@]2(C)[C@H]3C(=O)C=C4[C@@H]5C[C@@](C)(C(=O)O)CC[C@]5(C)CC[C@@]4(C)[C@]3(C)CC[C@@H]12` [glycyrrhizin], for which the “MBD-3 production ability promoting effect against LPS-treated epidermal keratinocytes” value with MBD-3 (LPS-treated epidermal keratinocytes alone) was “did not have an MBD-3 production ability promoting effect”. For the same molecule, in the experiment on MBD-3 (co-culture of LPS-treated epidermal keratinocytes and Gr-1+CD11b+ cells), the “amount of MBD-3 in culture supernatant vs no glycyrrhizin” value is reported as “larger”. Also, the “MBD-3 production ability inhibiting effect of Gr-1+CD11b+ cells against LPS-treated epidermal keratinocytes” value with MBD-3 (co-culture) is given as “reduced this inhibiting effect”. In addition, the “MBD-1 production ability restoring effect” value in the experiment on MBD-1 [1] (glycyrrhizin 10 μg/ml (Example 7)), in the experiment with MBD-1 [1] (glycyrrhizin 100 μg/ml (Example 8)) and with MBD-1 [1] (glycyrrhizin 300 μg/ml (Example 9)) was “particularly excellent” throughout. The “amount of Pseudomonas aeruginosa in the blood specimen vs saline mouse” value in the experiment on Pseudomonas aeruginosa [2] is “markedly reduced”. In the experiment on Pseudomonas aeruginosa [2], the “amount of Pseudomonas aeruginosa in the spleen homogenate specimen vs saline mouse” value is “markedly reduced”. For the same molecule, the “deaths among the mice (survival)” value with Pseudomonas aeruginosa [3] (100 CFU P. aeruginosa at burn site, 10 mg/kg i.p. at 2, 24 and 72 hours after burn, up to the 7th day, 10 mice) is recorded as “none of the individuals died”. The “survival rate compared with mice not administered with glycyrrhizin (physiological saline)” value with Pseudomonas aeruginosa [3] (100 CFU P. aeruginosa, 10 mg/kg i.p. at 2, 24 and 72 hours, after 2 days and on) is “markedly high”. Besides, the “CCL2 production ability of Gr-1+CD11b+ cells” value in the experiment on CCL2 was “inhibited”. Besides, the “amount of MBD-1 in skin tissue homogenate vs saline mouse” value with MBD-1 [4] was “larger”. Further, the “IL-10 production ability of Gr-1+CD11b+ cells” value with IL-10 was “inhibited”. The “amount of MBD-1 in culture supernatant vs no glycyrrhizin” value with MBD-1 [5] (co-culture of epidermal keratinocytes and Gr-1+CD11b+ cells) is given as “larger”. Also, in the experiment on MBD-1 [5] (co-culture), the “MBD-1 production ability inhibiting effect of Gr-1+CD11b+ cells against epidermal keratinocytes” value is given as “reduced this inhibiting effect”. Besides, the “MBD-1 production ability promoting effect against epidermal keratinocytes” value in the experiment with MBD-1 [5] (epidermal keratinocytes alone) is “did not have an MBD-1 production ability promoting effect”.
In the case of “CCL2: chemokine CCL2 produced by known recombinant DNA technology, 5 ng/ml (Reference Example 18)”, in the experiment with MBD-1 [6], the “MBD-1 production ability of the epidermal keratinocytes” value is reported as “inhibited”.

B1: IL-10: interleukin-10 produced by known recombinant DNA technology, 1 ng/ml (Reference Example 19) (protein, UniProt P18893 19-178, looked up)
Interleukin-10: SRGQYSREDNNCTHFPVGQSHMLLELRTAFSQVKTFFQTKDQLDNILLTDSLMQDFKGYLGCQALSEMIQFYLVEVMPQAEKHGPEIKEHLNSLGEKLKTLRMRLRRCHRFLPCENKSKAVEQVKSDFNKLQDQGVYKAMNEFDIFINCIEAYMMIKMKS
For B1, the “MBD-1 production ability of the epidermal keratinocytes” value in the experiment with MBD-1 [6] is given as “inhibited”.
